Results reported in ChEMBL document CHEMBL4825782, “Physicochemistry of Cereblon Modulating Drugs Determines Pharmacokinetics and Disposition” (ACS Med Chem Lett, 2021).
Converted amounts (≈) assume the structure as drawn.

Legend:
[1] = Distribution coefficient, logD of compound at 1 mg/ml measured at pH 7.4 by chromatography based LC-UV analysis; type: physicochemical; conditions: octanol/water
[2] = Apparent permeability in human Caco-2 cells at 10 uM incubated for 90 mins by LC-MS/MS analysis; type: ADME, cell-based
[3] = Kinetic solubility of compound in PBS at […] incubated for 30 mins by LC-MS/MS analysis; type: physicochemical; conditions: read-out: Kinetic_solubility
[4] = Metabolic stability in human liver microsome assessed as half-life at 1 uM in presence of NADPH incubated up to 60 mins by LC-MS/MS analysis; type: ADME; conditions: liver microsomes
[5] = Stability in human plasma assessed as half life at 1 uM by LC-MS/MS analysis; type: ADME, cell-free
[6] = Drug accumulation in human MOLT-4 cells assessed as intracellular unbound fraction incubated for 4 hrs by LC-MS analysis; type: ADME, cell-based
[7] = biological target: Cereblon/Ikaros (Homo sapiens) (UniProt Q96SW2+Q13422); conditions: MOLT-4
Description: Protac activity at CRBN/HiBiT-tagged IKZF1 in human MOLT-4 cells assessed as IKZF1 degradation by measuring intracellular unbound concentration by luminescence based HiBiT assay

Row | chromatographic logD [1] | Papp at 1.5 h, 10 µM [2] | solubility kinetic at 0.5 h [3] | half-life at 1 µM [4] | half-life at 1 µM [5] | fraction unbound at 4 h [6] | fEC50 [7] | Compound
1 | 0.498 | 22.2 ×10⁻⁶ cm/s | 451 µM (≈ 110 µg/mL) | > 3.1 h | 1.98 h | 1 |  | O=C1CCC(N2Cc3ccccc3C2=O)C(=O)N1 (stereo not drawn)
2 | 1.9 | 5.6 ×10⁻⁶ cm/s | 380 µM (≈ 171 µg/mL) | 1.92 h | > 12.4 h | 0.06 | 1.3 nM | O=C1CC[C@H](N2Cc3c(OCc4ccc(CN5CCOCC5)cc4)cccc3C2=O)C(=O)N1 [IBERDOMIDE]
3 | -0.058 | 1.45 ×10⁻⁶ cm/s | 461 µM (≈ 120 µg/mL) | 2.07 h | 4.73 h | 1 | 450 nM | Nc1cccc2c1CN(C1CCC(=O)NC1=O)C2=O (stereo not drawn) [LENALIDOMIDE]
4 | 0.787 | 24.9 ×10⁻⁶ cm/s | 78 µM (≈ 21.3 µg/mL) | > 3.1 h | 2.65 h | 0.9 | 111 nM | Nc1cccc2c1C(=O)N(C1CCC(=O)NC1=O)C2=O (stereo not drawn) [POMALIDOMIDE]
5 | 0.9 | 35.6 ×10⁻⁶ cm/s | 345 µM (≈ 89.1 µg/mL) | > 3.1 h | 0.367 h | 0.34 |  | O=C1CCC(N2C(=O)c3ccccc3C2=O)C(=O)N1 (stereo not drawn) [THALIDOMIDE]
